Reference: US6150413A, “Triaromatic compounds and pharmaceutical/cosmetic compositions comprised thereof” (Centre International de Recherches Dermatologiques, priority 1997, dated 2000)

What was measured:
RAR [1] = assay: mouse-ear oedema induced by topical application of CD270 (test to identify RAR-antagonist molecules); type: in vivo; settings: for % of inhibition of the agonist activity: mouse-ear oedema, topical, agonist CD270 0.01% w/v; for RAR-antagonist classification from the mouse-ear oedema table: results in words
Description: (§1) The compounds according to the invention show activity in the test of differentiation of mouse embryonic teratocarcinoma cells (F9) (Cancer Research 43, p. 5268, 1983) and/or in the test of inhibition of ornithine decarboxylase after induction with TPA in mice (Cancer Research 38, p. 793-801, 1978). These tests show the activities of these compounds in the fields of cell differentiation and proliferation respectively. In the cell (F9) differentiation test, it is possible to evaluate an agonist activity as an antagonist activity to retinoic acid receptors. […] These compounds are thus also active in a test which consists in identifying RAR-antagonist molecules, as described in French patent application No. 95/07302 filed on Jun. 19, 1995 by the Applicant. This test comprises the following steps: (i) a sufficient amount of an RAR-agonist molecule is applied topically to an area of the skin of a mammal, (ii) a molecule capable of showing RAR-antagonist activity is administered systemically or topically to this same mammal or to this same area of the mammal's skin, before, during or after step (i), and (iii) the response on the area of the mammal's skin thus treated is evaluated. Thus, the response to a topical application to a mammal's ear of an RAR-agonist molecule, which corresponds to an increase in the thickness of that ear, can be inhibited by the systemic or topical administration of an RAR-antagonist molecule.
Results of a test to identify RAR-antagonist molecules, as described in French patent application No. 95/07302 filed on Jun. 19, 1995 by the Applicant.
The test used is that of mouse-ear oedema induced by topical application of 2-(5,6,7,8-tetrahydro-5,5,8,8-tetramethyl-2-naphthyl)-6-benzo[b]-thiophenecarboxylic acid (CD270) at a concentration of 0.01% on a weight per unit volume basis.
The response can be inhibited by the topical administration of a dose (expressed in % on a weight per unit volume basis) of compound X.

RAR [2] = assay: differentiation of mouse embryonic teratocarcinoma cells (F9), inhibition of the activity of agonist CD2043 (RAR-antagonist identification); type: cell-based; settings: for % of inhibition of the agonist activity: F9 cells, compound 10^-5 M, agonist CD2043 10^-8 M; for RAR-antagonist classification from the F9 table: results in words
Description: as §1
Results of a test of differentiation of mouse embryonic teratocarcinoma cells (F9) in order to identify RAR-antagonist molecules, described in Cancer Research 43, p. 5268, 1983.
In the test used, a compound is considered as being an RAR antagonist if it lowers the activity of the agonist (4-[(5,5,8,8-tetramethyl-5,6,7,8-tetrahydro-2-naphthylamino)methyl]benzoicacid, referred to as compound CD2043) on the morphology and secretion of the plasminogen activator by the F9 cells. In this test, the compounds are tested at 10^-5 M and the CD2043 is tested at 10^-8 M.

SMILES	% of inhibition of the agonist activity (RAR [1]; dose 0.1% w/v) [%]	% of inhibition of the agonist activity (RAR [2]) [%]	% of inhibition of the agonist activity (RAR [1]; dose 0.01% w/v) [%]	RAR-antagonist classification from the mouse-ear oedema table (RAR [1])	RAR-antagonist classification from the F9 table (RAR [2])	inflammation / thickness of the mouse's ear (RAR [1]; topical CD270, 0.01% w/v, mouse ear)
C/C(=C\C#Cc1ccc(C(=O)O)cc1)c1ccccc1-c1ccc(C)cc1 [Example 18, 4-[4-(4'-Methylbiphenyl-2-yl)pent-3-en-(E)-1-ynyl]benzoic acid]	41	69				
CCCOc1ccc(/C=C/C#Cc2ccc(C(=O)O)cc2)c(-c2ccc(C)cc2)c1 [Example 43, 4-[4-(4'-Methyl-5-propoxybiphenyl-2-yl)but-3-en-(E)-1-ynyl]benzoic acid]		84	24			
COCOc1cccc(-c2ccc(C)cc2)c1/C=C/C#Cc1ccc(C(=O)O)cc1 [Example 52, 4-[4-(3-Methoxymethoxy-4'-methylbiphenyl-2-yl)but-3-en-(E)-1-ynyl]benzoic acid]	97	97		RAR-antagonist compounds	RAR-antagonist compounds	
COCOc1ccc(-c2ccc(C)cc2)c(/C=C/C#Cc2ccc(C(=O)O)cc2)c1 [Example 15, 4-[4-(4-Methoxymethoxy-4'-methylbiphenyl-2-yl)but-3-en-(E)-1-ynyl]benzoic acid]		93	43			
Cc1ccc(-c2ccc(C)cc2/C=C/C#Cc2ccc(C(=O)O)cc2)cc1 [Example 12, 4-[4-(4,4'-Dimethylbiphenyl-2-yl)but-3-en-1-ynyl]benzoic acid]		87	45	RAR-antagonist compounds	RAR-antagonist compounds	
CC1(C)CCC(C)(C)c2cc(-c3cc4ccc(C(=O)O)cc4s3)ccc21 [CD270, 2-(5,6,7,8-tetrahydro-5,5,8,8-tetramethyl-2-naphthyl)-6-benzo[b]-thiophenecarboxylic acid, reference compound]						causes an inflammation which is characterized by an increase in the thickness of the mouse's ear
COCOc1ccc(-c2ccccc2/C=C/C#Cc2ccc(C(=O)O)cc2)cc1 [Example 28, 4-[4-(4'-Methoxymethoxybiphenyl-2-yl)but-3-en-(E)-1-ynyl]benzoic acid]		96	31	RAR-antagonist compounds	RAR-antagonist compounds	
COCOc1ccc(/C=C/C#Cc2ccc(C(=O)O)cc2)c(-c2ccc(C)cc2)c1 [Example 16, 4-[4-(5-Methoxymethoxy-4'-methylbiphenyl-2-yl)but-3-en-(E)-1-ynyl]benzoic acid]		92	34			
Cc1ccc(-c2ccccc2/C=C/C#Cc2ccc(C(=O)O)cc2)cc1 [Example 2, 4-[4-(4'-Methylbiphenyl-2-yl)but-3-en-(E)-1-ynyl]benzoic acid]		94	85	RAR-antagonist compounds	RAR-antagonist compounds	
COCOc1cccc(/C=C/C#Cc2ccc(C(=O)O)cc2)c1-c1ccc(C)cc1 [Example 17, 4-[4-(6-Methoxymethoxy-4'-methylbiphenyl-2-yl)but-3-en-(E)-1-ynyl]benzoic acid]	94	98				
COc1ccc(/C=C/C#Cc2ccc(C(=O)O)cc2)c(-c2ccc(C)cc2)c1 [Example 42, 4-[4-(4'-Methyl-5-methoxybiphenyl-2-yl)but-3-en-(E)-1-ynyl]benzoic acid]		91	26			
Cc1ccc(-c2c(C)cccc2/C=C/C#Cc2ccc(C(=O)O)cc2)cc1 [Example 14, 4-[4-(6,4'-Dimethylbiphenyl-2-yl)but-3-en-(E)-1-ynyl]benzoic acid]	93	95				
O=C(O)c1ccc(C#C/C=C/c2ccccc2-c2ccccc2)cc1 [Example 1, 4-(4-Biphenyl-2-ylbut-3-en-(E)-1-ynyl)benzoic acid]		100	78	RAR-antagonist compounds	RAR-antagonist compounds	
Cc1ccc(-c2cccc(F)c2/C=C/C#Cc2ccc(C(=O)O)cc2)cc1 [Example 11, 4-[4-(3-Fluoro-4'-methylbiphenyl-2-yl)but-3-en-(E)-1-ynyl]benzoic acid]	99	96		RAR-antagonist compounds	RAR-antagonist compounds	
Cc1ccc(-c2c(O)cccc2/C=C/C#Cc2ccc(C(=O)O)cc2)cc1 [Example 44, 4-[4-(4'-Methyl-6-hydroxybiphenyl-2-yl)but-3-en-(E)-1-ynyl]benzoic acid]	54	97				
COc1cccc(/C=C/C#Cc2ccc(C(=O)O)cc2)c1-c1ccc(C)cc1 [Example 45, 4-[4-(4'-Methyl-6-methoxybiphenyl-2-yl)but-3-en-(E)-1-ynyl]benzoic acid]	99	95				
